The values that follow come from the supplement of paper PMC10307832.

Compound in the experiment “BAY61-3606 + Navitoclax”: COC1=C(C=C(C=C1)C2=CC3=NC=CN3C(=N2)NC4=C(C=CC=N4)C(=O)N)OC [BAY61-3606] + CC1(C)CCC(c2ccc(Cl)cc2)=C(CN2CCN(c3ccc(C(=O)NS(=O)(=O)c4ccc(N[C@H](CCN5CCOCC5)CSc5ccccc5)c(S(=O)(=O)C(F)(F)F)c4)cc3)CC2)C1 [Navitoclax] (partner 0.5 µM)
Kind of experiment: relative viability (nuclei count vs DMSO), 5 days (fraction); higher = more cells survive. In outline: (§1)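 Medians of duplicate plates are given as relative viability. That measure is the nuclei count in treated wells divided by the count in vehicle wells. Counts were taken on 4× images of lung cancer cell lines in 1536-well plates, 5 days after pin-tool dosing the day after seeding with one drug alone or a fixed anchor-drug dose plus five library-drug doses (not always all listed) in √10 steps.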

Compound in the experiment “Doxorubicin + Foretinib”: COc1cccc2c1C(=O)c1c(O)c3c(c(O)c1C2=O)C[C@@](O)(C(=O)CO)C[C@@H]3O[C@H]1C[C@H](N)[C@H](O)[C@H](C)O1 [Doxorubicin] + COc1cc2c(Oc3ccc(NC(=O)C4(C(=O)Nc5ccc(F)cc5)CC4)cc3F)ccnc2cc1OCCCN1CCOCC1 [Foretinib] (partner 0.25 µM)
The experiment is described as above. In outline:
as §1

Take ChaGo-K-1: the relative viability came out at 1.18 with BAY61-3606 + Navitoclax (first compound 0.02 µM); 0.822 with BAY61-3606 + Navitoclax (first compound 0.06325 µM); 0.946 in the experiment with BAY61-3606 + Navitoclax (first compound 0.2 µM); 0.666 with BAY61-3606 + Navitoclax (first compound 0.6325 µM); 0.983 with BAY61-3606 + Navitoclax (first compound 2 µM); 1.03 with Doxorubicin + Foretinib (first compound 0.001 µM). For the same cell line, the relative viability is 0.946 with Doxorubicin + Foretinib (first compound 0.003162 µM), 0.835 with Doxorubicin + Foretinib (first compound 0.01 µM), 0.937 in the experiment with Doxorubicin + Foretinib (first compound 0.03162 µM) and 0.826 in the experiment with Doxorubicin + Foretinib (first compound 0.1 µM).
Turning to NCI-H2347, the relative viability with BAY61-3606 + Navitoclax (first compound 0.02 µM) was 0.802; in the experiment with BAY61-3606 + Navitoclax (first compound 0.06325 µM), 0.789; with BAY61-3606 + Navitoclax (first compound 0.2 µM) it was 0.859; with BAY61-3606 + Navitoclax (first compound 0.6325 µM), 0.936; with BAY61-3606 + Navitoclax (first compound 2 µM) it was 0.754; with Doxorubicin + Foretinib (first compound 0.001 µM), 0.845. In addition, the relative viability came out at 0.847 in the experiment with Doxorubicin + Foretinib (first compound 0.003162 µM), 0.708 in the experiment with Doxorubicin + Foretinib (first compound 0.01 µM), 1.02 with Doxorubicin + Foretinib (first compound 0.03162 µM) and 0.714 with Doxorubicin + Foretinib (first compound 0.1 µM).
On to NCI-H1703, for which the relative viability with BAY61-3606 + Navitoclax (first compound 0.02 µM) was found to be 1.47; in the experiment with BAY61-3606 + Navitoclax (first compound 0.06325 µM), 0.859; in the experiment with BAY61-3606 + Navitoclax (first compound 0.2 µM), 0.954; with BAY61-3606 + Navitoclax (first compound 0.6325 µM), 1.08; with BAY61-3606 + Navitoclax (first compound 2 µM) it was 0.475; with Doxorubicin + Foretinib (first compound 0.003162 µM) it was 0.304. In addition, the relative viability turned out to be 0.3 in the experiment with Doxorubicin + Foretinib (first compound 0.01 µM) and 0.24 in the experiment with Doxorubicin + Foretinib (first compound 0.1 µM).
For the cell line NCI-H1666, the relative viability was 1.17 with BAY61-3606 + Navitoclax (first compound 0.02 µM); 1.06 in the experiment with BAY61-3606 + Navitoclax (first compound 0.2 µM); 0.965 with BAY61-3606 + Navitoclax (first compound 0.6325 µM); 1.02 in the experiment with BAY61-3606 + Navitoclax (first compound 2 µM); 0.964 with Doxorubicin + Foretinib (first compound 0.001 µM); 0.872 with Doxorubicin + Foretinib (first compound 0.003162 µM). Further, the relative viability was determined as 0.792 in the experiment with Doxorubicin + Foretinib (first compound 0.01 µM), 0.5 in the experiment with Doxorubicin + Foretinib (first compound 0.03162 µM) and 0.468 with Doxorubicin + Foretinib (first compound 0.1 µM).
In the case of PC-3 [JPC-3], the relative viability in the experiment with BAY61-3606 + Navitoclax (first compound 0.02 µM) is 0.826; in the experiment with BAY61-3606 + Navitoclax (first compound 0.06325 µM) it was 0.849; with BAY61-3606 + Navitoclax (first compound 0.2 µM), 0.773; with BAY61-3606 + Navitoclax (first compound 0.6325 µM) it was 0.805; with BAY61-3606 + Navitoclax (first compound 2 µM), 0.776; with Doxorubicin + Foretinib (first compound 0.001 µM), 1.05. For the same cell line, the relative viability turned out to be 1.06 with Doxorubicin + Foretinib (first compound 0.003162 µM), 1.05 with Doxorubicin + Foretinib (first compound 0.01 µM), 0.97 with Doxorubicin + Foretinib (first compound 0.03162 µM) and 1.06 with Doxorubicin + Foretinib (first compound 0.1 µM).
Take HARA: the relative viability with BAY61-3606 + Navitoclax (first compound 0.02 µM) was found to be 1.2; in the experiment with BAY61-3606 + Navitoclax (first compound 0.06325 µM), 1.12; with BAY61-3606 + Navitoclax (first compound 0.2 µM), 1.16; with BAY61-3606 + Navitoclax (first compound 0.6325 µM), 1.1; with BAY61-3606 + Navitoclax (first compound 2 µM), 1.02; in the experiment with Doxorubicin + Foretinib (first compound 0.001 µM) it was 0.791. Further, the relative viability with Doxorubicin + Foretinib (first compound 0.003162 µM) turned out to be 0.946; with Doxorubicin + Foretinib (first compound 0.01 µM) it was 0.779; in the experiment with Doxorubicin + Foretinib (first compound 0.03162 µM) it was 0.816; with Doxorubicin + Foretinib (first compound 0.1 µM), 0.866.
Take NCI-H727: the relative viability amounted to 0.45 in the experiment with BAY61-3606 + Navitoclax (first compound 0.02 µM); 0.512 in the experiment with BAY61-3606 + Navitoclax (first compound 0.06325 µM); 0.419 in the experiment with BAY61-3606 + Navitoclax (first compound 0.2 µM); 0.525 with BAY61-3606 + Navitoclax (first compound 0.6325 µM); 0.33 with BAY61-3606 + Navitoclax (first compound 2 µM); 0.894 in the experiment with Doxorubicin + Foretinib (first compound 0.001 µM). For the same cell line, the relative viability with Doxorubicin + Foretinib (first compound 0.003162 µM) was determined as 1.22; in the experiment with Doxorubicin + Foretinib (first compound 0.01 µM), 1.03; in the experiment with Doxorubicin + Foretinib (first compound 0.03162 µM), 0.725; in the experiment with Doxorubicin + Foretinib (first compound 0.1 µM) it was 1.05.
Consider NCI-H1650, for which the relative viability with BAY61-3606 + Navitoclax (first compound 0.02 µM) worked out at 1.21; with BAY61-3606 + Navitoclax (first compound 0.06325 µM) it was 1.19; in the experiment with BAY61-3606 + Navitoclax (first compound 0.2 µM), 1.16; with BAY61-3606 + Navitoclax (first compound 0.6325 µM), 1.27; with BAY61-3606 + Navitoclax (first compound 2 µM), 0.751; with Doxorubicin + Foretinib (first compound 0.001 µM), 0.967. For the same cell line, the relative viability in the experiment with Doxorubicin + Foretinib (first compound 0.003162 µM) came to 1.38; with Doxorubicin + Foretinib (first compound 0.01 µM), 0.859; with Doxorubicin + Foretinib (first compound 0.03162 µM), 0.291; in the experiment with Doxorubicin + Foretinib (first compound 0.1 µM), 0.181.
Turning to NCI-H2405, the relative viability with BAY61-3606 + Navitoclax (first compound 0.02 µM) came out at 0.904; with BAY61-3606 + Navitoclax (first compound 0.06325 µM) it was 0.669; with BAY61-3606 + Navitoclax (first compound 0.2 µM), 0.857; with BAY61-3606 + Navitoclax (first compound 0.6325 µM), 1.08; with BAY61-3606 + Navitoclax (first compound 2 µM) it was 0.655; with Doxorubicin + Foretinib (first compound 0.001 µM), 1.02. For the same cell line, the relative viability with Doxorubicin + Foretinib (first compound 0.003162 µM) was found to be 1.1; in the experiment with Doxorubicin + Foretinib (first compound 0.01 µM) it was 1.02; in the experiment with Doxorubicin + Foretinib (first compound 0.03162 µM), 1.09; with Doxorubicin + Foretinib (first compound 0.1 µM), 1.
In the case of A549, the relative viability with BAY61-3606 + Navitoclax (first compound 0.02 µM) is 1.24; with BAY61-3606 + Navitoclax (first compound 0.06325 µM), 1.14; with BAY61-3606 + Navitoclax (first compound 0.2 µM), 1.33; with BAY61-3606 + Navitoclax (first compound 0.6325 µM) it was 1.22; with BAY61-3606 + Navitoclax (first compound 2 µM) it was 0.916; in the experiment with Doxorubicin + Foretinib (first compound 0.001 µM) it was 0.911. Also, the relative viability with Doxorubicin + Foretinib (first compound 0.003162 µM) is 1.1; in the experiment with Doxorubicin + Foretinib (first compound 0.01 µM), 0.927; with Doxorubicin + Foretinib (first compound 0.03162 µM), 0.684; in the experiment with Doxorubicin + Foretinib (first compound 0.1 µM), 0.29.
As to LOU-NH91, the relative viability was 0.73 with BAY61-3606 + Navitoclax (first compound 0.02 µM); 0.57 with BAY61-3606 + Navitoclax (first compound 0.06325 µM); 0.731 in the experiment with BAY61-3606 + Navitoclax (first compound 0.2 µM); 0.812 with BAY61-3606 + Navitoclax (first compound 0.6325 µM); 0.5 with BAY61-3606 + Navitoclax (first compound 2 µM); 0.742 with Doxorubicin + Foretinib (first compound 0.001 µM). Also, the relative viability in the experiment with Doxorubicin + Foretinib (first compound 0.003162 µM) amounted to 0.879; with Doxorubicin + Foretinib (first compound 0.01 µM), 0.944; in the experiment with Doxorubicin + Foretinib (first compound 0.03162 µM) it was 0.931; with Doxorubicin + Foretinib (first compound 0.1 µM) it was 0.839.
